Laboratory results reported in ChEMBL document CHEMBL1127124, “Selective inactivation of monoamine oxidase B by aminoethyl 3-chlorobenzyl ether” (Bioorg Med Chem Lett, 1993).
pKi: −log10 of the molar value.

Key:
[1] = molecular target: T1, Amine oxidase [flavin-containing] A (Bos taurus, UniProt P21398); experiment: Tested for enzyme affinity with purified bovine liver MAO A
T1 sequence (P21398 whole entry): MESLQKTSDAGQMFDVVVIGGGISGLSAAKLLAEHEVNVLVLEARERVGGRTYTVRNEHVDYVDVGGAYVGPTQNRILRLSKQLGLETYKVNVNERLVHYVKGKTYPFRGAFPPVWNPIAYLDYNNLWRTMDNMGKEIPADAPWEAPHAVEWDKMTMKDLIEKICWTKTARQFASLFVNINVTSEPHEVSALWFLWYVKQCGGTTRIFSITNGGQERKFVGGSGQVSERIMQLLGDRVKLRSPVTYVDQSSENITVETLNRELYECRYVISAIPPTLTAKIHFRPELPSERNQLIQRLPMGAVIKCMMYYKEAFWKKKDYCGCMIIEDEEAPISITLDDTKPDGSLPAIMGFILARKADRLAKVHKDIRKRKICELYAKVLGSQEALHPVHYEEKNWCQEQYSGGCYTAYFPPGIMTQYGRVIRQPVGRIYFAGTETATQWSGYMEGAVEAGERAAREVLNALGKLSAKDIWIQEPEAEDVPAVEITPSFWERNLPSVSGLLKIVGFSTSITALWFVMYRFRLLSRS

[2] = molecular target: T2, Amine oxidase [flavin-containing] B (Bos taurus, UniProt P56560); experiment: Tested for enzyme affinity with purified bovine liver MAO B
T2 sequence (P56560 whole entry): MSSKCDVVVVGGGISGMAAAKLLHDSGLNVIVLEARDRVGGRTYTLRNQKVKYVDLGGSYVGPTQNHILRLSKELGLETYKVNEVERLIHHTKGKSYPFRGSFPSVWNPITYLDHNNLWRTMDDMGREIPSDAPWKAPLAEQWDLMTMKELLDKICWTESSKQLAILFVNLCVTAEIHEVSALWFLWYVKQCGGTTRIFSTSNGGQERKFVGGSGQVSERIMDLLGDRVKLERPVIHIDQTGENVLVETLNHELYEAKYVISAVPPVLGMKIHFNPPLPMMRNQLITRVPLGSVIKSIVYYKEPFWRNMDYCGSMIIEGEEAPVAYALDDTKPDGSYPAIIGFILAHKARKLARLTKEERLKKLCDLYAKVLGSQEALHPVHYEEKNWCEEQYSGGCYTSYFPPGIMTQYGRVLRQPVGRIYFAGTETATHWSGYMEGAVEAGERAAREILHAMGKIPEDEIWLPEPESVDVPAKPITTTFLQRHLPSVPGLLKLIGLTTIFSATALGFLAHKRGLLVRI

[3] = molecular target: T1, Amine oxidase [flavin-containing] A; experiment: Tested for enzyme kinetic activity with purified bovine liver MAO A; settings: cattle
[4] = molecular target: T2, Amine oxidase [flavin-containing] B; experiment: Tested for enzyme kinetic activity with purified bovine liver MAO B; settings: cattle

Work on NCCOCc1cccc(Cl)c1 yielded a pKi [1] of 3.47, a pKi [2] of 5.30 and a kinact [3] of 0.000467 s⁻¹. It also gave a kinact [4] of 0.0117 s⁻¹.
